Measurements from US20050118641A1, “Design Technique for Use in Engineering of Deamidation Rates of Peptides, Proteins, Hormones, and Peptide-Like, Protein-Like and Hormone-Like Molecules” (priority 2003, published 2005).

Legend:
Format in all cases: physicochemical
[1] = Deamidation of Asn pentapeptides GlyXxxAsnYyyGly (medians over Xxx)
From the text: (§1) Median values for carboxyl side residues of Asn and Gln were used in these derivations. The measurements for Asn are the most reliable and are used for these derivations. […] The half-time of hydrolysis was assumed to be 8010 days, but may be faster or slower. Regardless of the derivation based on Asn, calculations of Gln based on these values are found to approximately agree with the currently available data.
(§2) The natural log of the median hydrolysis-corrected rate constants times 100 (s^−1) for the Asn and Gln pentapeptides as a function of carboxyl-side residue as computed from the experimental data are listed in Table 1. The first columns are (100)(ln(k)) and are directly proportional to the Arrhenius activation energy. The second columns are normalized to Gly. This leaves only the side-chain effects and also defines the effect of the Gly hydrogen side-chain or a similar atom with mostly steric effects in this β-position as zero.
For most Asn peptides the computed result should be within 10% or less of the experimental value in 37° C., pH 7.4, 0.15 M Tris-HCl buffer or similar conditions. Gln rates are more affected by hydrolysis and cannot be verified to as high an accuracy with the current data. For Gln peptides and long lived Asn peptides, correction for hydrolysis should be made. With a hydrolysis value of 8010 days: t1/2total=1/(1/8010+1/t1/2calculated)

[2] = Deamidation of Gln pentapeptides GlyXxxGlnYyyGly (medians over Xxx); conditions: Gln versus Asn peptide
From the text: as §1, §2
This model for Asn deamidation is also applicable to Gln deamidation, although Gln deamidation rates have not been as well characterized. While there may be important differences in the functional group effects for the longer Gln chain, the steric effects are similar as illustrated in FIG. 6. […] The fundamental difference between Asn and Gln rates has been removed by subtracting the Gln values from GlyXxxGlnGlyGly and the Asn values from GlyXxxAsnGlyGly.

[3] = Deamidation of insulin at Asn(B3)
Description: As an example, consider the sequence Phe-ValAsn(B3)GlnHis of insulin. This peptide deamidates at Asn(B3) with a half-time of 136 days at 37° C., pH 7.4 sodium acetate, 0.1% methyl paraben, 0.7% NaCl.

GlyXxxAsnGlyGly
deamidation rate (50% chance of deamidating) [1]: about 1 day

GlyXxxAsnThrGly
experimental deamidation half-time ([1]; 37° C., pH 7.4, 0.15 M Tris-HCl buffer): 46.2 days

GlyXxxGlnGlyGly
difference between GlyXxxGlnGlyGly and GlyXxxAsnGlyGly, (100)ln(k) scale [2]: 644.8

insulin
deamidation half-time at Asn(B3) ([3]; 37° C., pH 7.4 sodium acetate, 0.1% methyl paraben, 0.7% NaCl): 136 days
(100)ln(k) subtracted from the AsnGly value ([3]; converted from the 136 day half-time): 478.3
